One assay addresses T1, PPARγ (Homo sapiens, UniProt P37231).
T1 sequence (P37231 1-505): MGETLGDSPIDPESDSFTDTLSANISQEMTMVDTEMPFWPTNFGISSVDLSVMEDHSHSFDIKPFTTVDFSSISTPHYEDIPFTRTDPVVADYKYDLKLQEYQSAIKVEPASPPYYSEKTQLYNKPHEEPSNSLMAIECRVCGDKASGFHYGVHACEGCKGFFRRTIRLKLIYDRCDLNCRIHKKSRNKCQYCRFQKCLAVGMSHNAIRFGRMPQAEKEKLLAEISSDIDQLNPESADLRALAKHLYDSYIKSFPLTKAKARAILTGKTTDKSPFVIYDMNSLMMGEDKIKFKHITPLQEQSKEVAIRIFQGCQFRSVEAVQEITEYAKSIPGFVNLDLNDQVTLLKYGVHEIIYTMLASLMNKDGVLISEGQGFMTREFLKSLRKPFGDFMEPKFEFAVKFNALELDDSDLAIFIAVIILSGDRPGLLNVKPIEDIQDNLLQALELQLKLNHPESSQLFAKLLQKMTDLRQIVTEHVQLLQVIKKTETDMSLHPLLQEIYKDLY
T1 sequence (P19793 1-462 partner): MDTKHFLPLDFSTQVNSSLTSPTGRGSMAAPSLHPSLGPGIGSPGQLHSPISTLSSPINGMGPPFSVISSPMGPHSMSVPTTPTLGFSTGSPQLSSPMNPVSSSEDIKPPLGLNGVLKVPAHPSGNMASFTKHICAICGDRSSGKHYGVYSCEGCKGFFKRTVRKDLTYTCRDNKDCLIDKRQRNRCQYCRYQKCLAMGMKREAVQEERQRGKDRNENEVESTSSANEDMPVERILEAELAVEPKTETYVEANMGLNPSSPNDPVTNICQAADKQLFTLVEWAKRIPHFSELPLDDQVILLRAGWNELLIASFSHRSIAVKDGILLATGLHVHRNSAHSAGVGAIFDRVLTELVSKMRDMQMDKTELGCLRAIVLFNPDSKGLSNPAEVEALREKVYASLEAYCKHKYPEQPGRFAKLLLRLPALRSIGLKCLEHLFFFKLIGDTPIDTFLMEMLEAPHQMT
Nature of the assay: PPARγ binding assay (SPA). Details: made in house; host or cells: HEK293 (cell lysates). To be noted: concentrations up to 10 μM. The protocol:
Because GPR40 is known to be activated by ligands to PPARγ exemplified compounds are examined in PPARα, PPARδ, and PPARγ binding and functional assays to determine the selectivity of exemplified compounds for GPR40. Compounds exemplified herein are tested essentially as described below for PPAR binding and generally have binding values greater than 1000 nM with 10 μM concentrations of test compound and are thus considered negative for PPAR activity.
Binding affinities of compounds for the PPAR α, δ, and γ receptors are assessed using Scintillation Proximity Assay (SPA) technology. Biotinylated oligonucleotide Direct Repeat 2 (DR2) is used for binding the receptors to Yttrium silicate streptavidin-coated SPA beads. […] Non-specific binding is determined in the presence of 10,000 nM of the unlabeled PPAR α/δ dual agonist reference compound for the alpha and delta receptor assays and the PPARγ agonist reference compound for the gamma receptor assay. The binding reaction (100 μl per well in a 96 well [Costar 3632] plate) is incubated for 10 h and counted disintegration per minutes (dpm) on a Wallac Microbeta. Receptor binding affinity (IC50) for the compounds is determined by fitting an 11 point concentration-response curve with a 4-parameter logistic equation. Ki, is determined from the IC50 using the Cheng-Prussoff equation and Kd determined by saturation binding. […]

Another assay deals with Min6 cells. Nature of the assay: Glucose Dependent Insulin Secretion (GDIS) assay, insulinoma cell line Min6. The note with it: 1 μM plus 25 mM glucose compared to 25 mM glucose alone; 2 h. Format: cell-based, mouse. The protocol: Because activation of GPR40 is known to result in insulin secretion which is dependent on high glucose concentrations, two separate assay systems (insulinoma cell line and primary rodent islets) are developed to further characterize compounds that are known to increase intracellular calcium in the GPR40 primary assay discussed above.
GDIS assays are performed using the mouse insulinoma cell line Min6. Min6 cells are maintained in Dulbecco's Modified Eagle's Medium (DMEM) containing non-essential amino acids, 10% FBS, […] 2-mercaptoethanol and 1% penicillin and streptomycin at 37° C. plus 5% CO2. On the day of the experiment, the cells are washed twice with 200 μl of pre-warmed Krebs-ringer buffer without glucose. Addition of 200 μL of pre-warmed Krebs-ringer buffer containing 2.5 mM glucose is used to starve the cells followed by the addition of compounds in the presence of a high concentration of glucose (25 mM). The plate is incubated at 37° C. for 2 hours. At the end of the 2 h incubation, the supernatant is gently transferred into a Millipore filter plate and spun at 200 g (gravitational force) for 3 minutes. Insulin is assayed using a Mercodia Insulin estimation kit.

The results in this text go back to US8383642B2, “Spiropiperidine compounds” (Eli Lilly and Company, priority 2009, dated 2013).

As for `CC#C[C@@H](CC(=O)O)c1ccc(OCc2ccc(CN3CCC4(C=Cc5ccccc54)CC3)cc2)cc1` [Example 1, (3S)-3-(4-{[4-(1′H-Spiro[indene-1,4′-piperidin]-1′-ylmethyl)benzyl]oxy}phenyl)hex-4-ynoic acid], the binding detected result on PPARγ is reported as “no binding is detected”. Moreover, in the assay on Min6 cells, the “increase in insulin secretion” value is reported as “two-fold increase”.
